# Assay results from US7651692B2, “Use of extracts of the plant Litchi chinensis sonn” (Cognis France S.A., priority 2001, dated 2010).
# Like-named read-outs stand apart in the source and are kept apart here.
# What was measured:
# Human plasmin = Human plasmin (Homo sapiens, UniProt P00747); assay: Plasmin inhibition after addition of the synthetic substrate; type: biochemical; conditions: 50 μg/ml
# Protocol: Thereafter, either synthetic substrate, especially “Val-Leu-paranitroanilide”, a product of Chromogenix, or natural pro-MMP3 obtained from Merck-Eurolab was added to the mixture. In the case of the synthetic substrate, absorption at 405 nm was measured every 5 minutes over a period of 30 minutes and the release of paranitroanilines was thus determined.
# The inhibition of enzymatic activity was tested against a control with no substrate and against a reference substance, more particularly Aprotinine, a product of Sigma.
# human MMP-1 = target: T1, human MMP-1 (Homo sapiens, UniProt P03956); assay: Inhibition of collagenase activity (MMP-1); type: biochemical; conditions: concentration 50 nmol
# T1 sequence (P03956 100-469): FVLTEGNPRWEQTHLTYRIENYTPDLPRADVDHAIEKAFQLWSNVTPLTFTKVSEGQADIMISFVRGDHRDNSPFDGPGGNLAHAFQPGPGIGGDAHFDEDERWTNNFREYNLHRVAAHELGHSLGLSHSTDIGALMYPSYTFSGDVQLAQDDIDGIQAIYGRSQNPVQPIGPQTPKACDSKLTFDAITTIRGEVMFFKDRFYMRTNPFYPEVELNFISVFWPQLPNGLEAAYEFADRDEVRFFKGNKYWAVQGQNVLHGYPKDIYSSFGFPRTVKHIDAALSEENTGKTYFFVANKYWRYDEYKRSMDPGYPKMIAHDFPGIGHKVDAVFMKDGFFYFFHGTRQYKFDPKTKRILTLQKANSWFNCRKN
# Protocol: After exposure to the sun, dermal fibroblasts of elderly people pour out collagenases—also known as matrix metalloprotease (MMP). […] The incubation time was 60 mins. at room temperature. The hydrolysis of the substrate was determined by fluorescence spectrometry at λem=393 nm (λex=328 nm). The […] TIMP-1 (MMP inhibitor occurring naturally in tissue) was used as the comparison standard.
# [1] = Luminol + microperoxydase (biochemical test)
# xanthine oxidase = assay: Luminol Test with xanthine oxidase (biochemical test)
# Source text: (§1) The first test substrate selected was diphenyl picryl hydrazyl (DPPH), a purple-red colored stable radical which changes into its colorless leuco derivative on contact with radical trappers. The change of color can be followed photometrically. The test results are set out in Table 3 (DPPH Test). In another test, the hydroxylation of salicylic acid by hydroxyl radicals (from the reaction of hydrogen peroxide with iron(III) ions and EDTA) was investigated as a reference system. This reaction can also be photometrically investigated because the hydroxylation product is reddish in color. The influence of the extracts on the formation of hydroxysalicylic acid was measured at an optical density of 490 nm. In a third and final test, xanthine oxidase was selected as the test system. Under oxidative tress, the enzyme converts purine bases, for example adenine or guanine, into […]. The oxygen radicals intermediately formed can be detected by reaction with luminol (via the luminescence) and quantitatively determined. The luminescence output diminishes in the presence of substances with radical-trapping properties.
# [2] = DPPH Test (chemical test, activity towards free radicals)
# Source text: as §1
# human fibroblasts [3] = type: cell-based
# Protocol: Human fibroblasts were inoculated with 10% by weight fetal calf serum in a defined nutrient medium (DMEM=Dulbecco Minimum Essential Medium, a product of Life Technologie S.a.r.l.) and incubated for 24 h at 37° C. in a 5% CO2 atmosphere. The nutrient medium containing fetal calf serum was then replaced by a nutrient medium of DMEM without fetal calf serum. Active substance in the form of the two extracts of the pericarp of Litchi chinensis Sonn. was then added to this nutrient medium in various concentrations.
# [4] = Fenton's reaction: hydroxylation of salicylic acid by hydroxyl radicals; conditions: formation of hydroxysalicylic acid, optical density 490 nm
# Source text: as §1
# TIMP-1 = TIMP-1 poured out by fibroblasts; type: cell-based, human; conditions: concentration not printed in this line
# Protocol: (§2) This test is used to evaluate the ability of the litchi extract to reduce the toxic effects of UV-A radiation on human fibroblasts cultivated in vitro. To this end, both the quantity of the enzyme MMP-1 (matrix metalloproteinase) poured out and the quantity of the natural enzyme inhibitor TIMP-1 are determined. UV-A radiation is used in this test because it can penetrate into the dermis and induce oxidative stress which leads to ageing of the skin.
# (§3) To this end, the fibroblasts are cultivated in a precisely defined medium containing fetal calf serum. […] After further incubation for one day at 37° C./5% CO2, the culture medium is replaced by a salt solution and the fibroblasts are exposed to UV-A (15 J/cm^2, lamp: SOL500, Dr. Höhnle. filter: H1, radiometer: Vibert Lourmat). After the exposure, the fibroblasts are incubated for another two days. The MMO-1 and TIMP-1 contents of the supernatant medium are determined with an Amersham test kit (Kit No. RPN2610 and RPN2611). No extract was added to the control.
# MMP-1 = assay: Inhibition of collagenase synthesis: MMP-1 poured out by fibroblasts; type: cell-based, human; conditions: 0.1 μm
# Protocol: as §2, §3
# human keratinocytes = assay: Cell protecting effect against UV-B in human keratinocytes cultivated in vitro; type: cell-based; conditions: UV-B 50 mJ/cm^2; 0.001% substance; level in % by comparison with the control
# Protocol: Method: The effect of UV-B radiation was investigated in vitro in keratinocytes by determining the release of the cytoplasm enzyme LDH (lactate dehydrogenase). This enzyme serves as a marker for cell damage.
# To carry out the tests, a defined medium containing fetal calf serum was inoculated with the keratinocytes and the plant extract (diluted with saline solution) was added 72 hours after the inoculation.
# The keratinocytes were then exposed to a dose of UV-B (50 mJ/cm^2-tubes: DUKE FL40E).
# After incubation for another day at 37° C./5% CO2, the LDH content in the supernatant was determined. The LDH (lactate dehydrogenase) content was determined by an enzyme reaction (kit used to determine LDH levels from Roche). The number of adhering keratinocytes was determined (after trypsin treatment) with a particle counter.
# [5] = test system: human leucocytes (neutrophilic granulocytes); assay: Anti-inflammatory activity: respiratory burst, released oxygen radicals; type: cell-based; conditions: 0.001% by weight
# Protocol: Method: Anti-inflammatory activity was studied on a cell line of human leucocytes (neutrophilic granulocytes). To this end, the cells were incubated with various concentrations of extracts of Example 1 to be tested, after which a respiratory burst was induced by yeast cell extract (“zymosan”) by activation of the cells for 30 mins. with 0.1 ml zymosan. The content of oxygen radicals intermediately formed was determined for 60 seconds by reaction with luminol via the luminescence and quantitatively evaluated. The luminescence yield falls in the presence of substances with radical-trapping properties. The percentage of released radicals was determined against a reference substance (Minocycline—a radical trapper). The results are expressed in % relative to the control. For control purposes, the number of intact cells was determined with a particle counter and is shown in % by comparison with the control.
# elastase = assay: Inhibition of elastase activity; type: biochemical; conditions: concentration 0.1 % (w/v)
# Protocol: Serine proteases, such as elastase for example, degrade elastin, proteoglycans and collagen and thus weaken the connective tissue. […] The incubation time was 30 mins. at room temperature. The inhibition was followed photometrically at 410 nm; 1′α1-antitrypsin was used as positive standard.
# human fibroblasts [6] = assay: Cell protecting effect against UV-A on human fibroblasts cultivated in vitro; type: cell-based; conditions: UV-A 20 J/cm^2; 0.0003% substance; level in % by comparison with the control
# Protocol: Method: To carry out these tests, a defined culture medium containing the fibroblasts is inoculated with foetal calf serum and added to the plant extract (in the defined medium containing 10% fetal calf serum) 72 hours after inoculation.
# After incubation for 48 hours at 37° C./5% CO2, the culture medium was replaced by saline solution (physiological NaCl solution) and the fibroblasts were exposed to a dose of UV-A (365 nm, 20 J/cm^2; tubes: MAZDA FLUOR TFWN40).
# After the exposure to UV-A, the MDA level (malonaldialdehyde level) in the supernatant sodium chloride solution was quantitatively determined by reaction with thiobarbituric acid.
# [7] = After exposure to UV-A (15 J/cm^2)
# Sequence of Human plasmin (P00747 581-810 limits assumed): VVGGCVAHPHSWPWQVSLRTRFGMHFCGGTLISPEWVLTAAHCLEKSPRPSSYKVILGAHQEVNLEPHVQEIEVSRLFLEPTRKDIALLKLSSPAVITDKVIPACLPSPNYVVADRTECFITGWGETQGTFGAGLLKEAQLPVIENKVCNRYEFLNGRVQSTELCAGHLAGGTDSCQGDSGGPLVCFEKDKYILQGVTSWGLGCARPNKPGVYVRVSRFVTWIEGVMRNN
# Sequence of Human plasmin (P00747 97-580 partner limits assumed): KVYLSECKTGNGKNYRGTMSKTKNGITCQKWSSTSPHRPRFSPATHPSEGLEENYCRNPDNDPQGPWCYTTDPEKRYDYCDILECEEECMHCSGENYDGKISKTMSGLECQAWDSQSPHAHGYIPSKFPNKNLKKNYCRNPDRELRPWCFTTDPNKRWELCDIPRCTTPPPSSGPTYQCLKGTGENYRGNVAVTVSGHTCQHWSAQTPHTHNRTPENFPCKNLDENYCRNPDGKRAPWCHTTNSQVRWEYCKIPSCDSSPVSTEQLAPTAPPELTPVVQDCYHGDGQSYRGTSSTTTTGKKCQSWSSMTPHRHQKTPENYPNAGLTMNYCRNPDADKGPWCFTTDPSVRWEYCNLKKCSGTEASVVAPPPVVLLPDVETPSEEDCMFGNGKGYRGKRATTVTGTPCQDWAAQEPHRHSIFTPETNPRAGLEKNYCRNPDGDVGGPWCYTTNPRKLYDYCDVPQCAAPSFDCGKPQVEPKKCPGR
compound,measurement,setting,value
Aprotinine,% Inhibition compared with the control (plasmin),Human plasmin,100%
"TIMP-1: MMP inhibitor occurring naturally in tissue, used as the comparison standard",MMP-1 Inhibition in %,human MMP-1,93%
O=C1O[C@H]([C@@H](O)CO)C(O)=C1O [Ascorbic acid],"EC50 in %, Luminol + microperoxydase",[1],0.0058%
same,"EC50 in %, Luminol",xanthine oxidase,0.0006%
same,"EC50 in %, DPPH Test",[2],0.0013%
same,"LD50 in % (w/v), ATP","human fibroblasts [3]; human fibroblasts, 3 days, intracellular ATP content",0.0056 % (w/v)
same,"LD50 in % (w/v), Proteins","human fibroblasts [3]; human fibroblasts, 3 days, protein content (Bradford)",0.0055 % (w/v)
same,"EC50 in %, NBT",NBT (biochemical test),0.5909%
same,"EC50 in %, Fenton's reaction",[4],0.1%
C[C@@H]1C[C@H]2[C@@H]3CCC4=CC(=O)C=C[C@]4(C)[C@@]3(F)[C@@H](O)C[C@]2(C)[C@@]1(O)C(=O)CO [Dexamethasone],TIMP-1 poured out,TIMP-1; [7],19 ng/mL
same,TIMP-1 poured out,TIMP-1; Without exposure to UV-A,39 ng/mL
same,MMP-1 poured out,MMP-1; [7],7 ng/mL
same,MMP-1 poured out,MMP-1; Without exposure to UV-A,2 ng/mL
CC(=O)Oc1ccccc1C(=O)O [aspirin],LDH released,human keratinocytes,68%
same,No. of keratinocytes,human keratinocytes,33%
CN(C)c1ccc(O)c2c1C[C@H]1C[C@H]3[C@H](N(C)C)C(O)=C(C(N)=O)C(=O)[C@@]3(O)C(O)=C1C2=O [Minocycline],No. of intact cells,[5]; in % by comparison with the control,100%
same,ROS content (%/control),[5]; zymosan-induced respiratory burst,28 %/control
1′α1-Antitrypsin: natural elastase inhibitor used as positive standard,Elastase inhibition in %,elastase,68%
tocopherol,"EC50 in %, Luminol + microperoxydase",[1],No effect up
same,"EC50 in %, Luminol",xanthine oxidase,No effect up
same,Cell proteins,human fibroblasts [6],97%
same,GSH/protein,human fibroblasts [6],78%
same,MDA released,human fibroblasts [6],11%
same,"EC50 in %, DPPH Test",[2],0.0067%
same,"LD50 in % (w/v), ATP",human fibroblasts [3],Nt toxic up
same,"LD50 in % (w/v), Proteins",human fibroblasts [3],Not toxic up
same,"EC50 in %, NBT",NBT (biochemical test),No effect up
